Source: ChEMBL document CHEMBL1201862, “PubChem BioAssay data set” (2004)
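Compound exposure: 48 hours, 5 concentrations, 96-well plates. GI50: concentration for 50% inhibition of growth.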 Activity calls are given as the source filed them. No stated cut-off is given here; in the data, active = GI50 up to about 1.1 µM and inactive = higher.

Tests used:
Assay in all cases: inhibition of tumour cell growth, NCI panel, 48 h
ACHN = test system: ACHN
MDA-MB-435 = test system: MDA-MB-435
A498 = test system: A498
CCRF-CEM = test system: CCRF-CEM
SK-MEL-28 = test system: SK-MEL-28
SNB-75 = test system: SNB-75
K562 = test system: K562
SF-268 = test system: SF-268
Hs-578T = test system: Hs-578T
UACC-257 = test system: UACC-257
CAKI-1 = test system: CAKI-1
A549 = test system: A549
MDA-MB-231 = test system: MDA-MB-231
NCI-H226 = test system: NCI-H226
TK-10 = test system: TK-10
RPMI-8226 = test system: RPMI-8226
LOX IMVI = test system: LOX IMVI
HCC 2998 = test system: HCC 2998
MCF7 = test system: MCF7
T47D = test system: T47D

Measured: GI50

CCCNC1=Nc2ccccc2NC(C)C1 (stereo unspecified)
inactive: ACHN > 100 µM | MDA-MB-435 > 100 µM | A498 > 100 µM | CCRF-CEM > 100 µM | SK-MEL-28 > 100 µM | SNB-75 22.6 µM | K562 > 100 µM | SF-268 > 100 µM | Hs-578T > 100 µM | UACC-257 > 100 µM | CAKI-1 > 100 µM | A549 > 100 µM | MDA-MB-231 > 100 µM | NCI-H226 > 100 µM | TK-10 > 100 µM | RPMI-8226 > 100 µM

CCNC(=O)COc1ccc(Cl)c(C)c1
inactive: ACHN > 100 µM | A498 > 100 µM | CCRF-CEM > 100 µM | SK-MEL-28 > 100 µM | SNB-75 86.1 µM | LOX IMVI > 100 µM | HCC 2998 > 100 µM | K562 > 100 µM | SF-268 > 100 µM | UACC-257 > 100 µM | CAKI-1 > 100 µM | A549 > 100 µM | NCI-H226 > 100 µM | TK-10 > 100 µM | RPMI-8226 > 100 µM

C=C(CCC/C(C)=C/C=C/[C@@H](C)CCCc1ccoc1)C[C@@H]1OC(=O)[C@H](C)[C@@H]1O
inactive: MCF7 7.89 µM | ACHN 7.59 µM | MDA-MB-435 7.96 µM | A498 7.26 µM | CCRF-CEM 9.89 µM | SK-MEL-28 10.1 µM | SNB-75 9.77 µM | LOX IMVI 9.71 µM | HCC 2998 11.6 µM | T47D 8.36 µM | K562 21.5 µM | SF-268 9.31 µM | UACC-257 6.35 µM | CAKI-1 9.91 µM | A549 7.29 µM | MDA-MB-231 7.48 µM | NCI-H226 6.43 µM | TK-10 13.1 µM | RPMI-8226 12.8 µM

c1ccc2sc(C3(N4CCCCC4)CCCC3)cc2c1
inactive: MCF7 8.02 µM | ACHN 8.65 µM | MDA-MB-435 14.9 µM | A498 12.7 µM | CCRF-CEM 3.5 µM | SK-MEL-28 14.6 µM | SNB-75 15.9 µM | LOX IMVI 17.9 µM | HCC 2998 3.85 µM | K562 6.61 µM | SF-268 11.4 µM | Hs-578T 14.1 µM | UACC-257 14.6 µM | CAKI-1 18.1 µM | A549 5.43 µM | NCI-H226 1.79 µM | TK-10 13.6 µM | RPMI-8226 2.38 µM

Cn1ncc2ccc3[nH]c4ccccc4c(=O)c3c21
inactive: ACHN 22.6 µM | A498 22.4 µM | CCRF-CEM 38.3 µM | SK-MEL-28 36.3 µM | SNB-75 19.9 µM | LOX IMVI 18.7 µM | HCC 2998 31.4 µM | K562 31.6 µM | SF-268 28.4 µM | UACC-257 31 µM | CAKI-1 23.4 µM | A549 20.2 µM | NCI-H226 11.6 µM | TK-10 21.1 µM | RPMI-8226 22.5 µM

N#CC1CC2(C1)OCCS2 (stereo unspecified)
inactive: ACHN > 100 µM | A498 > 100 µM | CCRF-CEM > 100 µM | SK-MEL-28 > 100 µM | SNB-75 32.3 µM | LOX IMVI > 100 µM | HCC 2998 > 100 µM | K562 > 100 µM | SF-268 > 100 µM | UACC-257 > 100 µM | CAKI-1 > 100 µM | A549 > 100 µM | NCI-H226 > 100 µM | TK-10 > 100 µM | RPMI-8226 > 100 µM

O=c1c2ccccc2[nH]c2c(Cl)cc(Cl)c(NC3CCCCC3)c12
inactive: MCF7 18.7 µM | ACHN 15.6 µM | MDA-MB-435 16.9 µM | A498 19.4 µM | CCRF-CEM > 10 µM | SK-MEL-28 27 µM | SNB-75 27.2 µM | LOX IMVI 36.5 µM | HCC 2998 25.1 µM | T47D 31.1 µM | K562 22.4 µM | UACC-257 23.6 µM | CAKI-1 31.5 µM | A549 29.9 µM | MDA-MB-231 29 µM | NCI-H226 21.6 µM | TK-10 22.2 µM | RPMI-8226 28.3 µM

CCCCNC(=S)Nc1nc(C(=O)NNC(=S)NCc2ccccc2)cs1
inactive: MCF7 12.3 µM | ACHN 26.6 µM | MDA-MB-435 35.8 µM | A498 > 100 µM | CCRF-CEM > 10 µM | LOX IMVI 18.7 µM | HCC 2998 36.6 µM | T47D 13.2 µM | K562 34.4 µM | SF-268 20.6 µM | UACC-257 20.2 µM | CAKI-1 29.6 µM | A549 52.4 µM | MDA-MB-231 66.4 µM | NCI-H226 32.9 µM | TK-10 49.8 µM | RPMI-8226 45.9 µM

CSC1=Nc2ccccc2-c2nc(-c3ccccc3)cc(-c3ccccc3)c2C1
inactive: ACHN 12.4 µM | MDA-MB-435 22.2 µM | A498 9.93 µM | CCRF-CEM > 100 µM | SK-MEL-28 35.6 µM | SNB-75 4.26 µM | LOX IMVI 23.2 µM | HCC 2998 41.6 µM | T47D 10.4 µM | K562 30.8 µM | UACC-257 28.1 µM | CAKI-1 12.4 µM | A549 16 µM | MDA-MB-231 14.2 µM | NCI-H226 87.9 µM | TK-10 16.2 µM | RPMI-8226 > 100 µM

Cc1c(N2C(=O)C(Cl)C2/C=C/c2ccccc2)c(=O)n(-c2ccccc2)n1C (stereo unspecified)
inactive: MCF7 24.7 µM | ACHN 20.3 µM | MDA-MB-435 12.1 µM | CCRF-CEM 16.1 µM | SNB-75 34.1 µM | LOX IMVI 17.3 µM | T47D 19.8 µM | K562 6.58 µM | SF-268 29.6 µM | UACC-257 4.68 µM | CAKI-1 53 µM | A549 26.4 µM | MDA-MB-231 25.4 µM | NCI-H226 25.1 µM | TK-10 14.3 µM | RPMI-8226 11.3 µM

COc1cc(CC(C)=O)cc(OC)c1
inactive: MCF7 34.2 µM | ACHN 76.7 µM | MDA-MB-435 41 µM | A498 35 µM | CCRF-CEM 29.8 µM | SK-MEL-28 > 100 µM | SNB-75 17.9 µM | HCC 2998 > 100 µM | T47D 53.8 µM | K562 33.3 µM | SF-268 71.1 µM | UACC-257 > 100 µM | A549 > 100 µM | MDA-MB-231 36.3 µM | NCI-H226 50.9 µM | TK-10 > 100 µM | RPMI-8226 27.8 µM

C[C@H]1C(OCCOC2O[C@@H]3O[C@@]4(C)CC[C@H]5[C@H](C)CCC([C@H]2C)[C@@]35O4)O[C@@H]2O[C@@]3(C)CC[C@H]4[C@H](C)CCC1[C@@]24O3 (stereo partly specified)
inactive: MCF7 37 µM | ACHN 40.3 µM | MDA-MB-435 38.4 µM | A498 46.7 µM | CCRF-CEM 30.5 µM | SK-MEL-28 61.5 µM | SNB-75 25.9 µM | LOX IMVI 23.7 µM | HCC 2998 21.6 µM | T47D 10.6 µM | K562 > 100 µM | SF-268 50.5 µM | UACC-257 33.1 µM | CAKI-1 37.2 µM | A549 39.8 µM | MDA-MB-231 27.2 µM | NCI-H226 28.2 µM | RPMI-8226 58.6 µM
